# Results taken from US11952364B2, “TRK inhibitors useful as anticancer drugs” (TYLIGAND BIOSCIENCE (SHANGHAI) LIMITED, priority 2018, dated 2024).
# What was measured:
# [1] = test system: TRK Fusion-Positive Cancers; conditions: cited from earlier work
# [2] = target: P450 3A4 (Homo sapiens (Human), UniProt P08684); assay: Cytochrome P450 inhibition in human liver microsomes; format: in vitro ADME
# Experimental: The test compounds were evaluated by detecting the metabolism of human liver microsomes for the substrates of different subtypes of Cyp450. The liver microsomes (Sekisui XenoTech, LLC., human liver microsomes, cat. #H0610) were slowly melted on ice, and 0.482 mL of the liver microsome solution (20 mg/mL) was added to 30 mL of 100 mM potassium phosphate solution to prepare a liver microsome working solution with a concentration of 0.316 mg/mL. The test compound and specific inhibitors of different Cyp450 subtypes (as a control) were prepared into 10 mM DMSO solutions, and then 20 μL of the 10 mM DMSO compound solution was added to 180 μL of acetonitrile to obtain a 1 mM compound solution. 2 μL of such 1 mM test compound or inhibitor solution was added to 150 μL of 0.316 mg/mL liver microsome working solution to obtain a 13.16 μM compound working solution. 45.3 mg of NADPH (SIGMA, cat. #V900362) was weighted and added into 13.59 mL of deionized water to prepare a 4 mM NADPH aqueous solution. 0.2 mL of 2 mg/mL internal standard stock solution (dexamethasone in acetonitrile) was added to 1000 mL of acetonitrile (SIGMA, cat. #271004) to prepare a reaction stop solution and stored at 4° C. […] The single point IC50 values were calculated according to the following formula. […]
# [3] = test system: FLT3(ITD); assay: KINOMEscan competition binding assay; parameters: species or system human; conditions: 2 μM
# Experimental: (§1) The experiment was performed according to the standard kinase activity determination protocol by Eurofins DiscoverX Corporation (11180 Roselle St. Suite D, San Diego, CA, USA, www.discoverX.com). Specifically, the experiment was conducted using the KINOMEscan™ screening platform, which adopts an active site-directed competition binding assay to quantitatively measure the interaction between test compounds and more than hundreds of human kinases and disease-related mutants. The working principle of the screening platform and kinase assay methods are well known in the art, for example, see www.discoverX.com.
# [4] = target: PDGFRB (Homo sapiens (Human), UniProt P09619); assay: KINOMEscan competition binding assay
# Experimental: as §1
# [5] = target: MET(M1250T) (Homo sapiens (Human), UniProt P08581, M1250T); assay: KINOMEscan competition binding assay
# Experimental: as §1
# [6] = target: KIT(L576P) (Homo sapiens (Human), UniProt P10721, L576P); assay: KINOMEscan competition binding assay
# Experimental: as §1
# [7] = target: MKNK1 (Homo sapiens (Human), UniProt Q9BUB5); assay: KINOMEscan competition binding assay
# Experimental: as §1
# [8] = target: MERTK (Homo sapiens (Human), UniProt Q12866); assay: KINOMEscan competition binding assay
# Experimental: as §1
# [9] = target: TRKB (Homo sapiens (Human), UniProt Q16620); assay: KINOMEscan competition binding assay
# Experimental: as §1
# [10] = target: MET(Y1235D) (Homo sapiens (Human), UniProt P08581, Y1235D); assay: KINOMEscan competition binding assay
# Experimental: as §1
# [11] = target: EPHA8 (Homo sapiens (Human), UniProt P29322); assay: KINOMEscan competition binding assay
# Experimental: as §1
# [12] = target: HIPK4 (Homo sapiens (Human), UniProt Q8NE63); assay: KINOMEscan competition binding assay
# Experimental: as §1
# [13] = target: MUSK (Homo sapiens (Human), UniProt O15146); assay: KINOMEscan competition binding assay
# Experimental: as §1
# [14] = target: DDR1 (Homo sapiens (Human), UniProt Q08345); assay: KINOMEscan competition binding assay
# Experimental: as §1
# [15] = target: MKNK2 (Homo sapiens (Human), UniProt Q9HBH9); assay: KINOMEscan competition binding assay
# Experimental: as §1
# [16] = target: MET (Homo sapiens (Human), UniProt P08581); assay: KINOMEscan competition binding assay
# Experimental: as §1
# [17] = target: MST1R (Homo sapiens (Human), UniProt Q04912); assay: KINOMEscan competition binding assay
# Experimental: as §1
# [18] = target: TIE1 (Homo sapiens (Human), UniProt P35590); assay: KINOMEscan competition binding assay
# Experimental: as §1
# [19] = target: RET (Homo sapiens (Human), UniProt P07949); assay: KINOMEscan competition binding assay
# Experimental: as §1
# [20] = target: KIT(V559D) (Homo sapiens (Human), UniProt P10721, V559D); assay: KINOMEscan competition binding assay
# Experimental: as §1
# [21] = target: LOK (Homo sapiens (Human), UniProt O94804); assay: KINOMEscan competition binding assay
# Experimental: as §1
# [22] = target: DDR2 (Homo sapiens (Human), UniProt Q16832); assay: KINOMEscan competition binding assay
# Experimental: as §1
# [23] = target: IKK-beta (Homo sapiens (Human), UniProt O14920); assay: KINOMEscan competition binding assay
# Experimental: as §1
# [24] = target: KIT(V559D, T670I) (Homo sapiens (Human), UniProt P10721, T670I/V559D); assay: KINOMEscan competition binding assay
# Experimental: as §1
# [25] = target: CDK11 (Homo sapiens (Human), UniProt Q9BWU1); assay: KINOMEscan competition binding assay
# Experimental: as §1
# [26] = target: RAF1 (Homo sapiens (Human), UniProt P04049); assay: KINOMEscan competition binding assay
# Experimental: as §1
# [27] = target: NEK9 (Homo sapiens (Human), UniProt Q8TD19); assay: KINOMEscan competition binding assay
# Experimental: as §1
# [28] = target: ROS1 (Homo sapiens (Human), UniProt P08922); assay: KINOMEscan competition binding assay
# Experimental: as §1
# [29] = target: IKK-alpha (Homo sapiens (Human), UniProt O15111); assay: KINOMEscan competition binding assay
# Experimental: as §1
# [30] = target: kinases listed in Table 10; assay: KINOMEscan kinase panel (kinase profile); format: binding, human
# Experimental: as §1
# The experiment was performed according to the standard kinase activity determination protocol by Eurofins DiscoverX Corporation (11180 Roselle St. Suite D, San Diego, CA USA, www.discoverX.com).
# MET, sequence (P08581 25-1390): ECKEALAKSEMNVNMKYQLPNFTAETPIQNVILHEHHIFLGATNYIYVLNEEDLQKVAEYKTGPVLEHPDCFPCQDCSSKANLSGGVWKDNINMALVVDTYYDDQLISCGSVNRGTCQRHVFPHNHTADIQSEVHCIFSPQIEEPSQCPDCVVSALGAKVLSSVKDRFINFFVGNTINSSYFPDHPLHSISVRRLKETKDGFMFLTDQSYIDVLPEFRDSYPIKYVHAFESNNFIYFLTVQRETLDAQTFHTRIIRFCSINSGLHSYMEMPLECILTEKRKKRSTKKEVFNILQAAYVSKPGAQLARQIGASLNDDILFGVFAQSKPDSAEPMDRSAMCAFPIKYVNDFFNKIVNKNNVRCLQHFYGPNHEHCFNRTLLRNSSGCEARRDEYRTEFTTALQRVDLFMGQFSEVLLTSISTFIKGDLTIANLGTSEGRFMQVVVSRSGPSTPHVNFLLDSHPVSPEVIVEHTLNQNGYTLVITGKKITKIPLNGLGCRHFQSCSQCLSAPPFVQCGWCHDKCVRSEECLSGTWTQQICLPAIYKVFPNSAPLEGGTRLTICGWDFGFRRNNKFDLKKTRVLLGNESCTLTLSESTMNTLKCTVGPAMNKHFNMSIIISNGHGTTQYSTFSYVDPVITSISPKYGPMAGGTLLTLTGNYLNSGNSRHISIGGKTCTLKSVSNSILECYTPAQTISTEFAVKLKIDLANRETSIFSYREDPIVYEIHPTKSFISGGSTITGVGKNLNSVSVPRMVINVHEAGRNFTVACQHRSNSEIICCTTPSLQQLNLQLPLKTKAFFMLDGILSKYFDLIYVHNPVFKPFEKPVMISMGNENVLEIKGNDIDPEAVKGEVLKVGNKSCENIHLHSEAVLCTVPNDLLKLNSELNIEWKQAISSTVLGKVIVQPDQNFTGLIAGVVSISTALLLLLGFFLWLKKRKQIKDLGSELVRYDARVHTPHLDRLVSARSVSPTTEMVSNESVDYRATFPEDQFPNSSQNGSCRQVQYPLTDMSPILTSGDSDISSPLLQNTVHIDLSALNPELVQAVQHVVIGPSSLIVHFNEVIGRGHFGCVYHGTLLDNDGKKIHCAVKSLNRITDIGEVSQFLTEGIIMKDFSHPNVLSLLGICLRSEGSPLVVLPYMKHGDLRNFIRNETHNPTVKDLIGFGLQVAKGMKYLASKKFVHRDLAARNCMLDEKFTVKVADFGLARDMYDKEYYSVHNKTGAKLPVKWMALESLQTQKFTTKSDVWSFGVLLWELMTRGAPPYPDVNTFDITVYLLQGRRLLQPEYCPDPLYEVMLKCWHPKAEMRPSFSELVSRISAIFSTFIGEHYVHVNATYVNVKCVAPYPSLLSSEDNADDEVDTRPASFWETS
# DDR1, sequence (Q08345 19-913): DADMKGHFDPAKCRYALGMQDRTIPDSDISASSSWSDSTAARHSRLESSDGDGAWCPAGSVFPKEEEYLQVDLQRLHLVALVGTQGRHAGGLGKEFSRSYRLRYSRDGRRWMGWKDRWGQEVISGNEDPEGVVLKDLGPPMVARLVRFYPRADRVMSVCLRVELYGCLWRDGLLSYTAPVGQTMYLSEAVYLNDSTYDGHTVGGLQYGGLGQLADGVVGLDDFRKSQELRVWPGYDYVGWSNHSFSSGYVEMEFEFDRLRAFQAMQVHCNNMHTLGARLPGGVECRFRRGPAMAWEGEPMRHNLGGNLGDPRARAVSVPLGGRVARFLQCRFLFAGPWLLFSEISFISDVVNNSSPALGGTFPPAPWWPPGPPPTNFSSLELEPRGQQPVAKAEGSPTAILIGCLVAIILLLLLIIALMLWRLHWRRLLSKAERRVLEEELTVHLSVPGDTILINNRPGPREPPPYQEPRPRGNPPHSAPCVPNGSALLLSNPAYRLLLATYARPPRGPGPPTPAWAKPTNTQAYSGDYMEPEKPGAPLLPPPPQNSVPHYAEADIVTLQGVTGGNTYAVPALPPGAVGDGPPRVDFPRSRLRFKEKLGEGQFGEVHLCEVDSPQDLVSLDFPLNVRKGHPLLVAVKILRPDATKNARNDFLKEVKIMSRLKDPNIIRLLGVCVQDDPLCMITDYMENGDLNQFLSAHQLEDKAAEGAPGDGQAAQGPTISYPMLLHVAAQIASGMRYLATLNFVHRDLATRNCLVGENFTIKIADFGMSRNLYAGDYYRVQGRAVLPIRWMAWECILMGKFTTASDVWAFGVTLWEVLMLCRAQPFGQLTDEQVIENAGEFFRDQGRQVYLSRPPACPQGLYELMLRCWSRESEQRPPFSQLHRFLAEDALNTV
# P450 3A4, sequence (P08684 whole entry): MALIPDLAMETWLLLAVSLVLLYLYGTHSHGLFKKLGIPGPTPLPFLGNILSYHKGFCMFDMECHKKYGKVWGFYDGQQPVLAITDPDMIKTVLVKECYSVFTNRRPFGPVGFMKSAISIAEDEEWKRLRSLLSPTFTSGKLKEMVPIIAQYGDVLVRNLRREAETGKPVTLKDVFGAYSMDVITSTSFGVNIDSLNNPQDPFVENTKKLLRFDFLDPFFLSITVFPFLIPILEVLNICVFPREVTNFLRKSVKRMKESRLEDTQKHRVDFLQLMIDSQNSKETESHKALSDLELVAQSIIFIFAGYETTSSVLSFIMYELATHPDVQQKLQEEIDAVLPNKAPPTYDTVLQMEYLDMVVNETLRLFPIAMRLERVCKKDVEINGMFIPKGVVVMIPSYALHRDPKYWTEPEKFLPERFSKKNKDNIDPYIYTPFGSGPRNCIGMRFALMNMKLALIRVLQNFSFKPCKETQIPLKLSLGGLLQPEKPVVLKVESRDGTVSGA
# IKK-alpha, sequence (O15111 whole entry): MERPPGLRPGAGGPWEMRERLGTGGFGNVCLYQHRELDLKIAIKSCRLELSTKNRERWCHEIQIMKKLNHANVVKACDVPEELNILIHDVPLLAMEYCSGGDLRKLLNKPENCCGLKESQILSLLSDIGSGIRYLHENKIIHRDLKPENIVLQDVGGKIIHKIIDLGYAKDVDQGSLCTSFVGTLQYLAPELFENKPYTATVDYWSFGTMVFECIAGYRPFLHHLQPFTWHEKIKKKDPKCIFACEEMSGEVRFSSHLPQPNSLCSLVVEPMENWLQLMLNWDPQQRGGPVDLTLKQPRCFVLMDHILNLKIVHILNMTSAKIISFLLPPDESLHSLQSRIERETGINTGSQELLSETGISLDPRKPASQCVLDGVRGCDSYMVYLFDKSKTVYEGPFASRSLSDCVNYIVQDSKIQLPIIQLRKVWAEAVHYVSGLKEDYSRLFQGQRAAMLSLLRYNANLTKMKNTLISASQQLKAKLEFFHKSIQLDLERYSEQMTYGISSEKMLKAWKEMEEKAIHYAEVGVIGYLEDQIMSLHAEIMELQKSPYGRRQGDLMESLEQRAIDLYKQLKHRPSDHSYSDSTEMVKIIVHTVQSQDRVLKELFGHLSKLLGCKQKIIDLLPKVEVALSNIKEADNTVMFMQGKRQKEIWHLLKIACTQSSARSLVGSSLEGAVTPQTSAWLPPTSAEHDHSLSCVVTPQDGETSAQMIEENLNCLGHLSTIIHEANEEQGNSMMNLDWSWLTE
# PDGFRB, sequence (P09619 33-1106): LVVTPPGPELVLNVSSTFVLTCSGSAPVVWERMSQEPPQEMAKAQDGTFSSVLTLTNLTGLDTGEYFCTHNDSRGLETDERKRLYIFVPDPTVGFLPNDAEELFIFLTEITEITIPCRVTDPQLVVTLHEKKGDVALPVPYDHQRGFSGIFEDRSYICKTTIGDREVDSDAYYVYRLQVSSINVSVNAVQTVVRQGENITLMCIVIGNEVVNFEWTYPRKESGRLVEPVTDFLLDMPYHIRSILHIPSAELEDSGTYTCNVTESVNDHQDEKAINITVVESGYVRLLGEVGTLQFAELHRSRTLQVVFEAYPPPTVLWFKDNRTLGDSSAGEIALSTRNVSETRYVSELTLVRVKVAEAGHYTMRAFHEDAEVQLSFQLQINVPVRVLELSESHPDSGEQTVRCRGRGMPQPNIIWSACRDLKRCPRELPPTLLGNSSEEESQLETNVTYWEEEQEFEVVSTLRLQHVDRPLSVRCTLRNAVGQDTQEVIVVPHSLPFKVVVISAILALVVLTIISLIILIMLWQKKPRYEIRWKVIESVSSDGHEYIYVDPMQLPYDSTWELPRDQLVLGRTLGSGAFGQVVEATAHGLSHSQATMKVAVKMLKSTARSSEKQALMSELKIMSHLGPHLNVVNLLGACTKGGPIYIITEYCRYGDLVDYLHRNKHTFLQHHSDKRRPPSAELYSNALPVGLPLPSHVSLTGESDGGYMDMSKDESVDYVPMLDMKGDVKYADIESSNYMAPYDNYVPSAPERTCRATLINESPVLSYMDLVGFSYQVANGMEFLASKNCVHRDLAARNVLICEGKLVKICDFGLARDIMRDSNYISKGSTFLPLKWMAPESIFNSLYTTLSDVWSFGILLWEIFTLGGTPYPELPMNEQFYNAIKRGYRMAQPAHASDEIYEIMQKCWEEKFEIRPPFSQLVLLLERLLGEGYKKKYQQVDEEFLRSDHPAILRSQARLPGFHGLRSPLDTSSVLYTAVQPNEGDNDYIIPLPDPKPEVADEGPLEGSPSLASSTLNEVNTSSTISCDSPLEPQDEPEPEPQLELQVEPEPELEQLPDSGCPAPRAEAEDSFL
# MKNK1, sequence (Q9BUB5 whole entry): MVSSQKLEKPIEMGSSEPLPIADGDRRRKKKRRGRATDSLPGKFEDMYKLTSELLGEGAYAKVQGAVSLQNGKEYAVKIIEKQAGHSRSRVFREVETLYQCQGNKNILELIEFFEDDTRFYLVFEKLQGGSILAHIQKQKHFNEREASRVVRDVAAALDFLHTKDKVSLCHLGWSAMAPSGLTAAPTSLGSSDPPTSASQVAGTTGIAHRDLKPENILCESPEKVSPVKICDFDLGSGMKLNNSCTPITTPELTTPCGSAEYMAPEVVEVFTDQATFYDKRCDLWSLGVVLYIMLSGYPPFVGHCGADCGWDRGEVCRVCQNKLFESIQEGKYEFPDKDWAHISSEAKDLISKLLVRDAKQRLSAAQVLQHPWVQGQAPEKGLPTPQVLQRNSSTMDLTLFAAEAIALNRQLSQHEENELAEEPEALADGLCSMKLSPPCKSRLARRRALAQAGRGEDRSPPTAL
structure (smiles),measurement,setting,value
"O=C(Nc1cnn2ccc(N3CCC[C@@H]3c3cc(F)ccc3F)nc12)N1CC[C@H](O)C1 [LOXO-101, Larotrectinib, reference compound]",patients had no disease progression,[1]; after 1 year of treatment,55%
same,patients still responded to treatment,[1]; after 1 year of treatment,71%
same,overall patient response rate (ORR),"[1]; patients, more than ten tumor types",75%
same,complete response,[1]; patients,13%
same,partial response,[1]; patients,62%
"COc1ccc(C(=O)Nc2ccc(Oc3cc4cnn(C)c4cc3-c3cn[nH]c3)c(F)c2)c(=O)n1-c1ccc(F)cc1 [Example 12, N-(3-fluoro-4-(1-methyl-6-(1H-pyrazol-4-yl)-1H-indazol-5-yloxy)phenyl)-1-(4-fluorophenyl)-6-methoxy-2-oxo-1,2-dihydropyridine-3-carboxamide]",IC50,[2],> 10 µM
same,% inhibition,[3],98%
same,inhibition at 2 µM,[4],98%
same,inhibition at 2 µM,[5],99%
same,inhibition at 2 µM,[6],100%
same,inhibition at 2 µM,[7],95%
same,inhibition at 2 µM,[8],97%
same,inhibition at 2 µM,[9],94%
same,inhibition at 2 µM,[10],99%
same,inhibition at 2 µM,[11],96%
same,inhibition at 2 µM,[12],97%
same,inhibition at 2 µM,[13],98%
same,inhibition at 2 µM,[14],100%
same,inhibition at 2 µM,[15],100%
same,inhibition at 2 µM,[16],93%
same,inhibition at 2 µM,[17],98%
same,inhibition at 2 µM,[18],99%
same,inhibition at 2 µM,[19],97%
same,inhibition at 2 µM,[20],100%
same,inhibition at 2 µM,[21],100%
same,inhibition at 2 µM,[22],100%
same,inhibition at 2 µM,[23],97%
same,inhibition at 2 µM,[24],99%
same,inhibition at 2 µM,[25],100%
same,inhibition at 2 µM,[26],92%
same,inhibition at 2 µM,[27],95%
same,inhibition at 2 µM,[28],97%
same,inhibition at 2 µM,[29],97%
same,kinase activity profile compared with Merestinib,"[30]; 2 μM, FIG. 2, kinases with a difference of inhibition rate >20%",significantly different trend in the kinase activity profile
same,inhibitory activity on the kinases listed in Table 10,[30]; concentration of 2 μM,> 90%
